Experimental data reported in patent EP4722213A1, “NITROGEN-CONTAINING FUNCTIONAL GROUP-SUBSTITUTED PYRIDAZINOPYRIDONE DERIVATIVE AND USE THEREOF” (Sichuan Huiyu Pharmaceutical Co., Ltd., priority 2023, dated 2024).
pIC50: −log10 of the molar value. Where a name gives a salt, the structure may show the parent alone.

The molecules below were run against T1, SOS1 (Homo sapiens, UniProt Q07889) (assay: biochemical).
T1 sequence (Q07889 1-1333): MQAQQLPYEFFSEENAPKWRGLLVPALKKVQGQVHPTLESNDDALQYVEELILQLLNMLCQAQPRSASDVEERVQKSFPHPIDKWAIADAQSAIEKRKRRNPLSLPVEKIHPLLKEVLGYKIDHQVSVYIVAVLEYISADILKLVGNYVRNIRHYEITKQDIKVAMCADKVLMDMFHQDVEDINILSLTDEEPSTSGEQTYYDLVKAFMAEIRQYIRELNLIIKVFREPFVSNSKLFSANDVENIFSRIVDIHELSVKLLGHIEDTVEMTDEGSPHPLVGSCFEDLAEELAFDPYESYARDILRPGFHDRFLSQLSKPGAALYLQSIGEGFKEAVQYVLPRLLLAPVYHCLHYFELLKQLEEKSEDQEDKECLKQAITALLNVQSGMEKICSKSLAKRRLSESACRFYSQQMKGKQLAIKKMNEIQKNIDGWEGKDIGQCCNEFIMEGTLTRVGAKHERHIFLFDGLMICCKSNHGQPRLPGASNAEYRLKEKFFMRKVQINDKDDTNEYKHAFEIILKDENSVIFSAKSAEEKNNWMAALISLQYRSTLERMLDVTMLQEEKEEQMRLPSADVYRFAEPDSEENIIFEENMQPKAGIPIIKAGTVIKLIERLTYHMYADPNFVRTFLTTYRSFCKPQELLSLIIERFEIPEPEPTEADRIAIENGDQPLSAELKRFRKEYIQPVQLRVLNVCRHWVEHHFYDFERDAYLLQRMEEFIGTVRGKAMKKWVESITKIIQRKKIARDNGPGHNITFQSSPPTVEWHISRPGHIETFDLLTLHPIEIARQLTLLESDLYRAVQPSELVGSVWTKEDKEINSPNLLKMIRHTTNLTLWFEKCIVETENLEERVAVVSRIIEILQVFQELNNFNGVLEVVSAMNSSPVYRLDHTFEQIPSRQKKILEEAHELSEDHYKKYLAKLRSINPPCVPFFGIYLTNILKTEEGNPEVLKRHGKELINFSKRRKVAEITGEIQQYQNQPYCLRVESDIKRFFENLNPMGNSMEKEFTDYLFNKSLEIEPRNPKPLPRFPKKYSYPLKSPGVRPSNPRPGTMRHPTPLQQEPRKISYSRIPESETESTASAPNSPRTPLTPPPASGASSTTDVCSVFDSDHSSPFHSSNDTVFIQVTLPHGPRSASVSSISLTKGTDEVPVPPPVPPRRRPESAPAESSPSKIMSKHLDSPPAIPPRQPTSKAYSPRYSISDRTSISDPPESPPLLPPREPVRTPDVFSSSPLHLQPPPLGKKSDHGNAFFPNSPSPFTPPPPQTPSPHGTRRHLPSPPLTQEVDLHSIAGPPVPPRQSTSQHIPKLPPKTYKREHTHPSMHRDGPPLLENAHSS

In order of falling pIC50:
1. C[C@@H](Nc1nnc(NC2COC2)c2cc(=O)n(C3(C)CC3)cc12)c1cccc(C(F)F)c1F [Example 115, (R)-4-((1-(3-(difluoromethyl)-2-fluorophenyl)ethyl)amino)-6-(1-methylcyclopropyl)-1-(oxetan-3-ylamino)pyrido[3,4-d]pyridazin-7(6H)-one]  8.39
2. CC(C)N1CCN(c2nnc(N[C@H](C)c3cccc(C(F)(F)F)c3F)c3cn(C4(C)CC4)c(=O)cc23)CC1 [Example 169, (R)-4-((1-(2-fluoro-3-(trifluoromethyl)phenyl)ethyl)amino)-1-(4-isopropylpiperazin-1-yl)-6-(1-methylcyclopropyl) pyrido[3,4-d]pyridazin-7(6H)-one]  8.33
3. C[C@@H](Nc1nnc(N2CCC3(CC3)C2)c2cc(=O)n(C3(C)CC3)cc12)c1cccc(C(F)F)c1F [Example 187, (R)-4-((1-(3-(difluoromethyl)-2-fluorophenyl)ethyl)amino)-6-(1-methylcyclopropyl)-1-(5-azaspiro[2.4]heptan-5-yl)pyrido[3,4-d]pyridazin-7(6H)-one]  8.32
4. C[C@@H](Nc1nnc(N2CCC3(CCN(C)C3)C2)c2cc(=O)n(C3(C)CC3)cc12)c1cccc(C(F)F)c1F (stereo partly drawn) [Example 183, 4-(((R)-1-(3-(difluoromethyl)-2-fluorophenyl)ethyl)amino)-1-(7-methyl-2,7-diazaspiro[4.4]nonan-2-yl)-6-(1-methylcyclopropyl) pyrido[3,4-d]pyridazin-7(6H)-one]  8.31
5. C[C@@H](Nc1nnc(N2CCN(C)CC2)c2cc(=O)n(C3(C)CC3)cc12)c1cccc(S(F)(F)(F)(F)F)c1 [Example 214, (R)-6-(1-methylcyclopropyl)-1-(4-methylpiperazin-1-yl)-4-((1-(3-(pentafluoro-λ^6-sulfaneyl)phenyl)ethyl)amino)pyrido[3,4-d]pyridazin-7(6H)-one formate]  8.30
6. Cc1cc(N)cc([C@@H](C)Nc2nnc(N3CCN(C(C)C)CC3)c3cc(=O)n(C4(C)CC4)cc23)c1F [Example 161, (R)-4-((1-(5-amino-2-fluoro-3-methylphenyl)ethyl)amino)-1-(4-isopropylpiperazin-1-yl)-6-(1-methylcyclopropyl) pyrido[3,4-d]pyridazin-7(6H)-one]  8.28
7. C[C@@H](Nc1nnc(N2CC3CC2CO3)c2cc(=O)n(C3(C)CC3)cc12)c1cccc(C(F)F)c1F (stereo partly drawn) [Example 201, 1-(2-oxa-5-azabicyclo[2.2.1]heptan-5-yl)-4-(((R)-1-(3-(difluoromethyl)-2-fluorophenyl)ethyl)amino)-6-(1-methylcyclopropyl) pyrido[3,4-d]pyridazin-7(6H)-one]  8.28
8. C[C@@H](Nc1nnc(N2CCN(C)CC2)c2cc(=O)n(C3CCN(C)CC3)cc12)c1cccc(C(F)F)c1F [Example 223, (R)-4-((1-(3-(difluoromethyl)-2-fluorophenyl)ethyl)amino)-1-(4-methylpiperazin-1-yl)-6-(1-methylpiperidin-4-yl)pyrido[3,4-d]pyridazin-7(6H)-one]  8.27
9. Cc1c(C#N)cccc1[C@@H](C)Nc1nnc(N2CCN(C)CC2)c2cc(=O)n(C3CC3)cc12 [Example 87, (R)-3-(1-((6-cyclopropyl-1-(4-methylpiperazin-1-yl)-7-oxo-6,7-dihydropyrido[3,4-d]pyridazin-4-yl)amino)ethyl)-2-methylbenzonitrile]  8.24
10. C[C@@H](Nc1nnc(N2CCN(C3CC3)CC2)c2cc(=O)n(C3CC(F)(F)C3)cc12)c1cccc(C(F)F)c1F [Example 103, (R)-6-(3,3-difluorocyclobutyl)-4-((1-(3-(difluoromethyl)-2-fluorophenyl)ethyl)amino)-1-(4-cyclopropylpiperazin-1-yl)pyrido[3,4-d]pyridazin-7(6H)-one]  8.23
11. C[C@@H](Nc1nnc(N2CC(CO)C2)c2cc(=O)n(C3(C)CC3)cc12)c1cccc(C(F)(F)F)c1 [Example 177, (R)-1-(3-(hydroxymethyl)azetidin-1-yl)-6-(1-methylcyclopropyl)-4-((1-(3-(trifluoromethyl)phenyl)ethyl)amino)pyr ido[3,4-d]pyridazin-7(6H)-one formate]  8.21
12. C[C@@H](Nc1nnc(NC2CN3CCC2CC3)c2cc(=O)n(C3(C)CC3)cc12)c1cccc(C(F)F)c1F (stereo partly drawn) [Example 133, 4-(((R)-1-(3-(difluoromethyl)-2-fluorophenyl)ethyl)amino)-6-(1-methylcyclopropyl)-1-(quinuclidin-3-ylamino)pyrido[3,4-d]pyridazin-7(6H)-one]  8.19
13. C[C@@H](Nc1nnc(N2CCN(C3CC3)CC2)c2cc(=O)n(C3(C)CC3)cc12)c1cccc(C(F)(F)F)c1F [Example 170, (R)-4-((1-(2-fluoro-3-(trifluoromethyl)phenyl)ethyl)amino)-1-(4-cyclopropylpiperazin-1-yl)-6-(1-methylcyclopropyl) pyrido[3,4-d]pyridazin-7(6H)-one]  8.17
14. Cc1cc(N)cc([C@@H](C)Nc2nnc(N3CCN(C4CC4)CC3)c3cc(=O)n(C4(C)CC4)cc23)c1F [Example 162, (R)-4-((1-(5-amino-2-fluoro-3-methylphenyl)ethyl)amino)-1-(4-cyclopropylpiperazin-1-yl)-6-(1-methylcyclopropyl) pyrido[3,4-d]pyridazin-7(6H)-one]  8.17
15. C[C@@H](Nc1nnc(N2CC3CC3C2)c2cc(=O)n(C3(C)CC3)cc12)c1cccc(C(F)F)c1F (stereo partly drawn) [Example 21, 1-(3-azabicyclo[3.1.0]hexan-3-yl)-4-(((R)-1-(3-(difluoromethyl)-2-fluorophenyl)ethyl)amino)-6-(1-methylcyclopropyl) pyrido[3,4-d]pyridazin-7(6H)-one]  8.16
16. Cc1c(C#N)cccc1[C@@H](C)Nc1nnc(N2CCN(C)CC2)c2cc(=O)n(C3(C)CC3)cc12 [Example 82, (R)-2-methyl-3-(1-((6-(1-methylcyclopropyl)-1-(4-methylpiperazin-1-yl)-7-oxo-6,7-dihydropyrido[3,4-d]pyridazin-4-yl)amino)ethyl)benzonitrile]  8.05
17. C[C@@H](Nc1nnc(NC2CCN(C)C2)c2cc(=O)n(C3(C)CC3)cc12)c1cccc(C(F)F)c1F (stereo partly drawn) [Example 126, 4-(((R)-1-(3-(difluoromethyl)-2-fluorophenyl)ethyl)amino)-6-(1-methylcyclopropyl)-1-((1-methylpyrrolidin-3-yl)amino)pyrido[3,4 d]pyridazin-7(6H)-one]  8.03
18. CC(=O)N1CCN(c2nnc(N[C@H](C)c3cccc(C(F)F)c3F)c3cn(C4(C)CC4)c(=O)cc23)CC1 [Example 79, (R)-1-(4-acetylpiperazin-1-yl)-4-((1-(3-(difluoromethyl)-2-fluorophenyl)ethyl)amino)-6-(1-methylcyclopropyl)pyrido[3,4-d]pyridazin-7(6H)-one]  7.90
19. C[C@@H](Nc1nnc(NC23CC(C2)C3)c2cc(=O)n(C3(C)CC3)cc12)c1cccc(C(F)F)c1F [Example 125, (R)-1-(bicyclo[1.1.1]pentan-1-ylamino)-4-((1-(3-(difluoromethyl)-2-fluorophenyl)ethyl)amino)-6-(1-methylcyclopropyl) pyrido[3,4-d]pyridazin-7(6H)-one]  7.85
20. Cc1c(C#N)cccc1[C@@H](C)Nc1nnc(N2CCN(C(C)C)CC2)c2cc(=O)n(C3CCN(C)CC3)cc12 [Example 132, (R)-3-(1-((1-(4-isopropylpiperazin-1-yl)-6-(1-methylpiperidin-4-yl)-7-oxo-6,7-dihydropyrido[3,4-d]pyridazin-4-yl)amino)ethyl)-2-methylbenzonitrile]  7.78
21. Cc1c(C#N)cccc1[C@@H](C)Nc1nnc(N2CCC(F)(F)C2)c2cc(=O)n(C3(C)CC3)cc12 [Example 69, (R)-3-(1-((1-(3,3-difluoropyrrolidin-1-yl)-6-(1-methylcyclopropyl)-7-oxo-6,7-dihydropyrido[3,4-d]pyridazin-4-yl)amino)ethyl)-2-methylbenzonitrile]  7.47
22. Cc1c([C@@H](C)Nc2nnc(N3CCC(F)(F)CC3)c3cc(=O)n(C4CC4)cc23)cccc1C(F)(F)F [Example 58, (R)-6-cyclopropyl-1-(4,4-difluoropiperidin-1-yl)-4-((1-(2-methyl-3-(trifluoromethyl)phenyl)ethyl)amino)pyr ido[3,4-d]pyridazin-7(6H)-one]  7.00
